From patent US5158969A, “Indole derivatives as potassium channel blockers” (NeuroSearch A/S, priority 1991, dated 1992)

Experiments:
[1] = test system: BKCa channel; assay: Single channel patch-clamp, inside-out patches of bovine aortic smooth muscle cells; format: cell-based; conditions: 20 μM
Method: (§1) All electrophysiological experiments were performed with patch-clamp technique (Hamill et al., Pflugers Arch. 391, 85-100 (1981). The ion composition of the internal solution was (in mM) 4 NaCl, 140 KCl, 1 CaCl2, 1 MgCl2, 2 EGTA, 10 HEPES and the external solution contained 140 NaCl, 4 Kcl, 2 CaCl2, 1 MgCl2 and 10 HEPES.

[2] = test system: BKCa channel; assay: Single channel patch-clamp in pancreatic β-cells; format: cell-based
Method: as §1

[3] = test system: immobility of female NMRI mice; assay: Tail suspension test; format: in vivo; conditions: 30 min before test, 6 min suspension
Method: 1-(4-methoxyphenyl)-indole has been studied in the socalled tail suspension test as described by L. Steru et al., Prog. Neuro-Psychopharmacol. Biol. Psychiatry 11, 659-671 (1987). Female NMRI mice (20-25 g, 10 mice per dose) were suspended by the tail with adhesive tape for 6 min. The mice alternated between phases of activity (trying to escape) and immobility (despair). The duration of immobility was recorded manually. Saline, 1-(4-methoxyphenyl)-indole or desipramine were administered i.p. 30 min before the start of the test.

[4] = test system: social recognition memory of adult male Wistar rats; assay: Social recognition model; format: in vivo, rat
Method: In short, adult male Wistar rats (350 g) were housed individually in normal transparent plexiglas cages. After a habituation period of at least 24 hours a juvenile male Wistar rat (25-30 days old) was introduced in the cage in a 5 min period (first exposure). A second exposure of the same juvenile rat for another 5 min period was performed either 5 min later or 120 min later. In one case, another juvenile rat was introduced 120 min after an exposure of a juvenile rat. The adult rat was administered either saline or different doses of 1-(4-methoxyphenyl)-indole i.p. 15 min before the first exposure of the juvenile rat.
In both sessions (1st and 2nd exposure period) the total duration of investigatory behaviour consisting of sniffing, nosing and grooming performed by the adult rat was noted.
The adult rat (n=10-20) used generally 100-110 sec investigating the juvenile rat on the first exposure. […] The memory seems basically to be based on recognition of urine odour.

SMILES | block of the BKCa channel [1] | block of the BKCa channel [2] | duration of immobility ([3]; doses between 10 and 100 mg/kg i.p.) | investigatory behaviour on the second exposure with a new (unknown) juvenile rat ([4]; 30 mg/kg i.p. 15 min before first exposure, new juvenile rat) | investigatory behaviour on the first exposure ([4]; 7.5-30 mg/kg i.p. 15 min before first exposure) | investigatory behaviour on the second exposure of the same juvenile rat ([4]; 7.5-30 mg/kg i.p., second exposure 120 min later, same juvenile rat) | duration of immobility ([3]; doses between 1 and 30 mg/kg i.p.)
COc1ccc(-n2ccc3ccccc32)cc1 [1-(4-methoxyphenyl)-indole] | potently at 20 μM blocked the BKCa channel | potently blocked the BKCa channel | inhibited the immobility dose-dependently | normal investigatory behaviour was seen | did not interfere with the adult rats investigatory behaviour | significant decrease in investigatory behaviour | –
CNCCCN1c2ccccc2CCc2ccccc21 [Desipramine, reference compound] | – | – | – | – | – | – | reduced the immobility dose-dependently
